In paper PMC8752738, “A propolis-derived small molecule ameliorates metabolic syndrome in obese mice by targeting the CREB/CRTC2 transcriptional complex” (Nature Communications, 2022):
“And” between values parts separate entries of the source, which are not always exact repeats. Identical values can stand only once.

System: tissue mRNA levels
Assay: Quantitative PCR of tissue gene expression in treated mice
Type: in vivo, mouse
Set-up: key to mRNA levels Scap / mRNA levels Insig1 / mRNA levels Ldlr / mRNA levels Mttp / mRNA levels Atgl / mRNA levels Tnfaip2 / mRNA levels Rxra / mRNA levels Srebf1 / mRNA levels Ucp2: mRNA level normalized to ribosomal L32 mRNA (internal control)
Conditions: for Lxra mRNA level: Figure 7g right, APC-20, single animals
Experimental: Total RNA from cells and tissues was extracted by Trizol (Invitrogen) and reverse-transcribed into cDNA using the prime script RT reagent kit with gDNA eraser (Takara). The mRNA levels were determined using the SYBR-green PCR kit (Takara) with ABIPRISM 7900HT Sequence detector (ABI) according to the manufacturer’s protocol. The quantitative qPCR primers used in this work are listed in Supplementary Table 1. Ribosomal L32 mRNA levels were used as an internal control.

[1] = Figure 6f, CRTC2KO mice, oral APC, individual mice
[2] = Figure 6f, WT mice, oral APC, group mean, N 6
[3] = Figure 6f, WT mice, oral APC, individual mice
[4] = Figure 8b, group mean, VEH mean 1.017
[5] = Figure 8b, individual mice, relative to CT
[6] = Figure 6d, white fat (WF) tissue of DIO mice, individual animals

## CC(C)=CCc1cc(C=CC(=O)O)cc(CC=C(C)C)c1O [APC, 3,5-diprenyl-4-hydroxycinnamic acid]
[1]
  mRNA of Srebf-1c: 0.7027 and 0.8687 and 0.636 and 0.7129 and 0.563 and 0.649
  mRNA of Srebf-2: 0.9632 and 0.7439 and 0.6331 and 0.8903 and 0.6443 and 0.8216
Figure 6f, WT mice, oral APC
  mRNA of Srebf-1c, Mean Diff. APC - VEH: -0.3789
  mRNA of Srebf-2, Mean Diff. APC - VEH: -0.3018
[2]
  mRNA of Srebf-1c, Mean 1 (APC): 0.629
  mRNA of Srebf-2, Mean 1 (APC): 0.7556
[3]
  mRNA of Srebf-1c: 0.563 and 0.9627 and 0.5968 and 0.3599 and 0.5266 and 0.7651
  mRNA of Srebf-2: 0.6655 and 0.7786 and 0.6178 and 0.7571 and 0.8561 and 0.8585
Crtc2KO mice
  Lxra mRNA level: 1.153 and 0.7926 and 0.8176 and 0.4111 and 0.7938
WT mice
  Lxra mRNA level: 0.6135 and 0.274 and 0.3613 and 0.5157 and 0.4764
Figure 8b, group mean, VEH mean 1.004
  mRNA levels G6Pase, Mean of APC: 0.5682
[4]
  mRNA levels Pck1, Mean of APC: 0.584
  mRNA levels Pgc-1a, Mean of APC: 0.499
[5]
  mRNA levels G6Pase: 0.4956 and 0.4542 and 0.8275 and 0.9159 and 0.3526 and 0.3635
  mRNA levels Pck1: 0.4515 and 0.4432 and 0.8122 and 0.7784 and 0.5234 and 0.4955
  mRNA levels Pgc-1a: 0.6618 and 0.6014 and 0.6454 and 0.5396 and 0.2614 and 0.2843
Figure 6d, white fat (WF) tissue of DIO mice, group mean, Mean of VEH 0.9173
  mRNA levels ApoB, Mean of APC: 0.3598
Figure 6d, white fat (WF) tissue of DIO mice, group mean, Mean of VEH 0.9567
  mRNA levels Srebf-1c, Mean of APC: 0.3721
Figure 6d, white fat (WF) tissue of DIO mice, group mean, Mean of VEH 0.9649
  mRNA levels Acsl1, Mean of APC: 0.4379
Figure 6d, white fat (WF) tissue of DIO mice, group mean, Mean of VEH 0.976
  mRNA levels Lxra, Mean of APC: 0.6757
Figure 6d, white fat (WF) tissue of DIO mice, group mean, Mean of VEH 0.9829
  mRNA levels Cebpa, Mean of APC: 1.129
Figure 6d, white fat (WF) tissue of DIO mice, group mean, Mean of VEH 0.9868
  mRNA levels Creb, Mean of APC: 1.007
Figure 6d, white fat (WF) tissue of DIO mice, group mean, Mean of VEH 0.9898
  mRNA levels Cpt1, Mean of APC: 1.536
Figure 6d, white fat (WF) tissue of DIO mice, group mean, Mean of VEH 0.9976
  mRNA levels Pparγ, Mean of APC: 0.9616
Figure 6d, white fat (WF) tissue of DIO mice, group mean, Mean of VEH 1.005
  mRNA levels Tnfaip2, Mean of APC: 0.9923
Figure 6d, white fat (WF) tissue of DIO mice, group mean, Mean of VEH 1.009
  mRNA levels Pgc-1a, Mean of APC: 0.704
Figure 6d, white fat (WF) tissue of DIO mice, group mean, Mean of VEH 1.017
  mRNA levels Srebf-2, Mean of APC: 0.6488
Figure 6d, white fat (WF) tissue of DIO mice, group mean, Mean of VEH 1.018
  mRNA levels Acc, Mean of APC: 0.5342
Figure 6d, white fat (WF) tissue of DIO mice, group mean, Mean of VEH 1.022
  mRNA levels Scd1, Mean of APC: 0.5423
Figure 6d, white fat (WF) tissue of DIO mice, group mean, Mean of VEH 1.036
  mRNA levels Fasn, Mean of APC: 0.5535
Figure 6d, white fat (WF) tissue of DIO mice, group mean, Mean of VEH 1.041
  mRNA levels Mgll, Mean of APC: 0.6295
Figure 6d, white fat (WF) tissue of DIO mice, group mean, Mean of VEH 1.044
  mRNA levels Retn, Mean of APC: 0.3139
Figure 6d, white fat (WF) tissue of DIO mice, group mean, Mean of VEH 1.054
  mRNA levels Glut4, Mean of APC: 0.2982
Figure 6d, white fat (WF) tissue of DIO mice, group mean, Mean of VEH 1.057
  mRNA levels Atgl, Mean of APC: 1.332
Figure 6d, white fat (WF) tissue of DIO mice, group mean, Mean of VEH 1.069
  mRNA levels Hsl, Mean of APC: 1.68
Figure 6d, white fat (WF) tissue of DIO mice, group mean, Mean of VEH 1.114
  mRNA levels Lpl, Mean of APC: 0.6106
Figure 6d, white fat (WF) tissue of DIO mice, group mean, Mean of VEH 1.126
  mRNA levels Pgc-1b, Mean of APC: 0.666
[6]
  mRNA levels Acc: 0.5239 and 0.3917 and 0.6963 and 0.6783 and 0.5952 and 0.3196
  mRNA levels Acsl1: 0.4459 and 0.1537 and 0.5539 and 0.2927 and 0.6116 and 0.5696
  mRNA levels ApoB: 0.3337 and 0.2599 and 0.6345 and 0.1702 and 0.408 and 0.3527
  mRNA levels Atgl: 1.322 and 1.233 and 1.718 and 1.2249 and 1.301 and 1.192
  mRNA levels Cebpa: 1.279 and 0.9809 and 1.111 and 1.353 and 1.154 and 0.8979
  mRNA levels Cpt1: 1.627 and 1.184 and 1.402 and 2.24 and 1.4196 and 1.345
  mRNA levels Creb: 1.411 and 1.393 and 1.026 and 0.3555 and 0.9743 and 0.8802
  mRNA levels Fasn: 0.5104 and 0.4062 and 0.9888 and 0.3127 and 0.6571 and 0.4456
  mRNA levels Glut4: 0.4697 and 0.1331 and 0.1991 and 0.1942 and 0.3683 and 0.4245
  mRNA levels Hsl: 2.303 and 1.694 and 1.5898 and 1.21 and 1.869 and 1.4146
  mRNA levels Lpl: 0.6557 and 0.743 and 0.6544 and 0.3781 and 0.733 and 0.4994
  mRNA levels Lxra: 0.7883 and 0.7167 and 0.4804 and 0.6732 and 0.7502 and 0.6457
  mRNA levels Mgll: 0.5524 and 0.27 and 0.8642 and 0.6156 and 0.9323 and 0.5423
  mRNA levels Pgc-1a: 0.5315 and 0.7402 and 0.6723 and 0.7798 and 0.8847 and 0.6158
  mRNA levels Pgc-1b: 0.683 and 0.7869 and 0.6257 and 0.4165 and 0.7943 and 0.6894
  mRNA levels Ppargamma: 1.1637 and 0.8189 and 1.303 and 0.8539 and 0.722 and 0.9079
